Experimental findings from US20260337153A1, “IONIZABLE AMINE LIPIDS” (Intellia Therapeutics, Inc., priority 2023, published 2026) are described below.

What all share (format): physicochemical
Data set [1] in a line: LNP encapsulation efficiency of RNA (Ribogreen fluorescence assay). To be noted: sgRNA:mRNA 1:2. In a few lines:
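RiboGreen fluorescence (ex 488/em 525 nm) measured total RNA in 1×TE with 0.2% Triton X-100 and free RNA in 1×TE alone, against standard curves of the starting RNA; encapsulation = (total − free)/total. Total RNA alternatively quantified after Triton disruption by RP-IP HPLC, UV 260 nm.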

Data set [2] in a line: pKa of unformulated amine lipid by TNS fluorescence. In short, it runs like this:
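Unformulated amine lipid was diluted from ethanol stock to approx. 100 μM in 0.1 M sodium phosphate buffers spanning pH 4.5–9.0 with TNS. Fluorescence read at ex 321/em 448 nm; normalized data fitted sigmoidally to give pKa.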

Data set [3] is described as follows: LNP average particle size and polydispersity by dynamic light scattering. To be noted: sgRNA:mRNA 1:2; for Number mean (average particle size) / PDI (polydispersity index) / Z-avg (average particle size): LNP with 50% ionizable lipid, 3% C13 Ether (LNP #1, Compound 53: 3% PEG2K-DMG instead). In short, it runs like this:
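Z-average (intensity-based) and number-mean diameters plus PDI measured by DLS on LNP samples diluted in PBS. LNPs carried sgRNA and Cas9 mRNA at 1:2 w/w, with lipids at 50% ionizable lipid, 38% cholesterol, 9% DSPC and 3% PEG lipid (PEG2K-DMG, C13 Ether or C14 Ether).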

[4] abbreviates: LNP with 50% ionizable lipid, 38% cholesterol, 9% DSPC, 3% C13 Ether (LNP #1, Compound 53: 3% PEG2K-DMG instead).
[5] abbreviates: Table 3, Experiments 1-13, LNP 50% ionizable lipid, 38% cholesterol, 9% DSPC, 3% PEG2K-DMG.
[6] abbreviates: sodium phosphate buffer, additional ionizable lipids (53-61), unformulated amine lipid, TNS, read-out: Lipid pKa.

Structures are written as SMILES. “And” between values parts separate entries of the source, which are not always exact repeats. Equal values may be shown once. Read-outs that look alike come from different tables or passages of the source.

For the compound `CCCCCCCCC(CCCCCCCC)OC(=O)CCCCCCC(=O)OCC(COC(=O)CCCCCCC(=O)OC(CCCCCCCC)CCCCCCCC)COC(=O)NCCN(CC)CC` [Compound 52, O′1,O1-(2-((((2-(diethylamino)ethyl)carbamoyl)oxy)methyl)propane-1,3-diyl) 8,8′-di(heptadecan-9-yl) di(octanedioate)], the “% E (encapsulation efficiency)” value in data set [1] (setting [4]) turned out to be 97%. Also, in data set [1] (setting [5]), the “% E (encapsulation efficiency)” value is 97%. Further, in data set [1] (Table 7, LNP with 3% C13 Ether), the “% E (encapsulation efficiency)” value came out at 97%. In addition, the pKa – broadly, the negative logarithm of the acid dissociation constant – in data set [2] (sodium phosphate buffer, Table 2, unformulated amine lipid, TNS, read-out: Lipid pKa) is 6.47. Besides, in data set [3] (38% cholesterol, 9% DSPC), the “Number mean (average particle size)” value came to 74 nm, the “PDI (polydispersity index)” value stood at 0.02 and the “Z-avg (average particle size)” value amounted to 88 nm. For the same compound, in data set [3] (setting [5]), the Number mean is 79 nm, the PDI came to 0.03 and the Z-avg came out at 87 nm. For the same compound, in data set [3] (Table 7, LNP with 3% C13 Ether), the Number mean came to 79 nm, the PDI is given as 0.01 and the Z-avg came out at 85 nm.
Turning to `CCCCC/C=C\C/C=C\CCCCCCCC(=O)OCC(COC(=O)CCC(OCCCCCCCC)OCCCCCCCC)COC(=O)OCCCN(CC)CC` (stereo not shown) [Compound 53], the “% E (encapsulation efficiency)” value in data set [1] (setting [4]) is 98%; in data set [1] (setting [5]), 98% and 99% and 94% and 97%; in data set [1] (Table 5, PEG lipid C13 Ether), 97%; in data set [1] (Table 5, PEG lipid C14 Ether), 99%; in data set [1] (Table 5, PEG lipid PEG2K-DMG), 97%. Further, the pKa in data set [2] (setting [6]) turned out to be 6.2. Besides, the “Number mean (average particle size)” value in data set [3] (38% cholesterol, 9% DSPC) is on record as 71 nm. Further, in data set [3] (38% cholesterol, 9% DSPC), the “PDI (polydispersity index)” value amounted to 0.04. Besides, the “Z-avg (average particle size)” value in data set [3] (38% cholesterol, 9% DSPC) is reported as 87 nm. In addition, the Z-avg in data set [3] (setting [5]) is 94 nm and 89 nm and 96 nm and 92 nm and 90 nm and 91 nm and 95 nm; in data set [3] (Table 5, PEG lipid C13 Ether), 87 nm; in data set [3] (Table 5, PEG lipid C14 Ether) it was 96 nm; in data set [3] (Table 5, PEG lipid PEG2K-DMG), 87 nm. Besides, the Number mean in data set [3] (Table 5, PEG lipid C13 Ether) was found to be 80 nm; in data set [3] (Table 5, PEG lipid C14 Ether), 90 nm; in data set [3] (Table 5, PEG lipid PEG2K-DMG), 82 nm. The PDI came out at 0.02 in data set [3] (Table 5, PEG lipid C13 Ether); 0.01 in data set [3] (Table 5, PEG lipid C14 Ether); 0.01 in data set [3] (Table 5, PEG lipid PEG2K-DMG).
For the compound `CCCCC/C=C\C/C=C\CCCCCCCC(=O)OCC(COC(=O)CCC(OCCCCCCCC)OCCCCCCCC)COC(=O)NCCN(CC)CC` (stereo not shown) [Compound 54], the “% E (encapsulation efficiency)” value in data set [1] (setting [5]) was 88%. The pKa in data set [2] (setting [6]) came to 6.5. Also, in data set [3] (setting [5]), the Number mean stood at 80 nm, the PDI amounted to 0.003 and the Z-avg was determined as 98 nm.
In the same order, the values of `CCCCCCCCCOC(=O)CCCCCCCN(CCO)CCCCCCCC(=O)OC(CCCCCCCC)CCCCCCCC` [Compound 55] are 84%, 6.6, 65 nm, 0.05 and 77 nm.
`CCCCC/C=C\C/C=C\CCCCCCCC(=O)OCC(COC(=O)CCCC(=O)OC(CCCCCCCC)CCCCCCCC)COC(=O)OCCCN(CC)CC` (stereo not shown) [Compound 56]: the “% E (encapsulation efficiency)” value in data set [1] (setting [5]) was 95% and 97%. Besides, the pKa in data set [2] (setting [6]) came to 6.1. Besides, in data set [3] (setting [5]), the Number mean is 74 nm and 80 nm; the PDI was 0.04 and 0.03; the Z-avg is 90 nm and 86 nm.
In the case of `CCCCC/C=C\C/C=C\CCCCCCCC(=O)OCC(COC(=O)CCCCCC(=O)OC(CCCCCCCC)CCCCCCCC)COC(=O)OCCCN(CC)CC` (stereo not shown) [Compound 57], in data set [1] (setting [5]), the “% E (encapsulation efficiency)” value was determined as 96%. Also, in data set [2] (setting [6]), the pKa amounted to 6.1. Further, in data set [3] (setting [5]), the Number mean was 75 nm and 80 nm; the Z-avg was 91 nm and 88 nm.
As for `CCCCC/C=C\C/C=C\CCCCCCCC(=O)OCC(COC(=O)CCCC(=O)OC(CCCCCCCC)CCCCCCCC)COC(=O)NCCN(CC)CC` (stereo not shown) [Compound 58], in data set [1] (setting [5]), the “% E (encapsulation efficiency)” value was 87% and 90%. For the same compound, the pKa in data set [2] (setting [6]) stood at 6.8. In data set [3] (setting [5]), the Number mean was 69 nm and 84 nm and 77 nm; the Z-avg is 91 nm and 92 nm and 94 nm.
In the case of `CCCCC/C=C\C/C=C\CCCCCCCC(=O)OCC(COC(=O)CCCCCC(=O)OC(CCCCCCCC)CCCCCCCC)COC(=O)NCCN(CC)CC` (stereo not shown) [Compound 59], the “% E (encapsulation efficiency)” value in data set [1] (setting [5]) is 83% and 82%. In addition, the pKa in data set [2] (setting [6]) amounted to 6.8. Further, in data set [3] (setting [5]), the Number mean was 83 nm and 78 nm; the PDI was 0.01 and 0.02; the Z-avg was 100 nm and 95 nm.
As to `CCCCCCCCC(CCCCCCCC)OC(=O)CCCCCCC(=O)OCC(COC(=O)CCCCCCC(=O)OC(CCCCCCCC)CCCCCCCC)COC(=O)OCCCN(CC)CC` [Compound 60], the “% E (encapsulation efficiency)” value in data set [1] (setting [5]) amounted to 97%; in data set [1] (Table 5, PEG lipid C13 Ether) it was 95%; in data set [1] (Table 5, PEG lipid C14 Ether), 96%; in data set [1] (Table 5, PEG lipid PEG2K-DMG) it was 96%. Also, the pKa in data set [2] (setting [6]) is 6.1. Moreover, the Number mean in data set [3] (setting [5]) came out at 78 nm; in data set [3] (Table 5, PEG lipid C13 Ether), 80 nm; in data set [3] (Table 5, PEG lipid C14 Ether), 83 nm; in data set [3] (Table 5, PEG lipid PEG2K-DMG), 77 nm. The PDI in data set [3] (setting [5]) is 0.02; in data set [3] (Table 5, PEG lipid C13 Ether), 0.03; in data set [3] (Table 5, PEG lipid C14 Ether), 0.03; in data set [3] (Table 5, PEG lipid PEG2K-DMG), 0.03. The Z-avg in data set [3] (setting [5]) is given as 87 nm; in data set [3] (Table 5, PEG lipid C13 Ether), 87 nm; in data set [3] (Table 5, PEG lipid C14 Ether) it was 95 nm; in data set [3] (Table 5, PEG lipid PEG2K-DMG), 89 nm.
Consider `CCCCCCCCC(CCCCCCCC)OC(=O)CCCCCCC(=O)OCC(COC(=O)CCCCCCC(=O)OC(CCCCCCCC)CCCCCCCC)COC(=O)NCCCN(CC)CC` [Compound 61], for which, in data set [1] (setting [5]), the “% E (encapsulation efficiency)” value is reported as 100%. The pKa in data set [2] (setting [6]) stood at 7.4. Besides, in data set [3] (setting [5]), the Number mean is reported as 39 nm, the PDI turned out to be 0.16 and the Z-avg came to 74 nm.
Turning to `CCCCCCCCC(CCCCCCCC)OC(=O)CCCCCC(=O)OCC(COC(=O)CCCCCC(=O)OC(CCCCCCCC)CCCCCCCC)COC(=O)OCCCN1CCCC1` [Compound 64, 7,7′-di(heptadecan-9-yl) O′1,O1-(2-((((3-(pyrrolidin-1-yl)propoxy)carbonyl)oxy)methyl)propane-1,3-diyl) di(heptanedioate)], the “% E (encapsulation efficiency)” value in data set [1] (setting [4]) turned out to be 99%. For the same compound, the pKa in data set [2] (read-out: pKa) stood at 6.4. Moreover, in data set [3] (38% cholesterol, 9% DSPC), the “Number mean (average particle size)” value worked out at 52 nm, the “PDI (polydispersity index)” value was found to be 0.01 and the “Z-avg (average particle size)” value is recorded as 63 nm.
In the same order, the values of `CCCCCCCCC(CCCCCCCC)OC(=O)CCCCCCC(=O)OCC(COC(=O)CCCCCCC(=O)OC(CCCCCCCC)CCCCCCCC)COC(=O)OCCCN1CCCC1` [Compound 65, 8,8′-di(heptadecan-9-yl) O′1,O1-(2-((((3-(pyrrolidin-1-yl)propoxy)carbonyl)oxy)methyl)propane-1,3-diyl) di(octanedioate)] are 99%, 6.4, 62 nm, 0.01 and 74 nm.
For the compound `CCCCCCCCC(CCCCCCCC)OC(=O)CCCCCCC(=O)OCC(CC)(COC(=O)CCCCCCC(=O)OC(CCCCCCCC)CCCCCCCC)COC(=O)NCCN(CC)CC` [Compound 66, O′1,O1-(2-((((2-(diethylamino)ethyl)carbamoyl)oxy)methyl)-2-ethylpropane-1,3-diyl) 8,8′-di(heptadecan-9-yl) di(octanedioate)], the “% E (encapsulation efficiency)” value in data set [1] (setting [4]) came to 99%. In addition, the pKa in data set [2] (read-out: pKa) was 6.1. Further, in data set [3] (38% cholesterol, 9% DSPC), the “Number mean (average particle size)” value is listed as 64 nm, the “PDI (polydispersity index)” value turned out to be 0.01 and the “Z-avg (average particle size)” value amounted to 78 nm.
